This is an account of results in article PMC12680861, “Comparative analysis of LJ-4378 and tirzepatide in mouse models of obesity and weight regain” (Archives of Pharmacal Research, 2025).

Format in all cases: in vivo, C57BL/6 J male mice
In experiment [1] the test system is HFD-fed mice. Description: Hepatic PKA signaling (immunoblot, liver). As to conditions: P-HSL/HSL, P-CREB/CREB. The protocol:
To evaluate the anti-obesity effect in vivo, mice fed either NCD or HFD for 10 weeks were subsequently treated for up to 4 weeks. To control for injection route-related variables, all mice received both intraperitoneal (I.P.) and subcutaneous (S.C.) injections. […]
For protein extraction, we utilized PRO-RERP Protein Extraction Solution (17081, iNtRON Biotechnology, Gyeonggi-do, Korea), supplemented with […] […] Protein concentrations were determined using the Pierce BCA protein assay Kit (#23227, Thermo Fisher, Waltham, Massachusetts, USA) by measuring absorbance at 562 nm with a MultiSkan GO spectrophotometer (Thermo Fisher). The quantified proteins were loaded and separated in 12% SDS-PAGE gels and transferred to polyvinylidene difluoride (PVDF) membranes (Bio-Rad, Hercules, CA, USA). […] After secondary antibody incubation, membranes were washed 3 times with TBST and detected with the Fusion Solo chemiluminescence imaging system (Vilber Lourmat, France). EvolutionCapt (version 17.03) software and the ImageJ (National Institutes of Health, Bethesda, MD, USA) program were used for analysis and to quantify the protein level.
Western blot analysis of P-HSL/HSL and P-CREB/CREB in liver. […] Statistical significance was determined using two-way ANOVA followed by Bonferroni post hoc test.
On the technique in general: In western blotting, separated proteins are transferred to a membrane and probed.

For experiment [2], the system named is HFD-fed mice. Description: Glucose tolerance test and fasting glucose in HFD-fed mice. To be noted: for fasting glucose levels: 12-h fast; for glucose tolerance (intraperitoneal glucose tolerance test): 14 days treatment.
Description: The glucose tolerance test was conducted on mice fasted for 12 h with ad libitum access to water. Mice were intraperitoneally injected with 20% D-( +)-glucose (2 g/kg body weight, #49139, Sigma), and blood glucose levels were measured at each time point using a Gluco Doctor Top meter and strip (Allmedicus, South Korea).
The test system of experiment [3] is HFD-fed mice. Description: Diet-induced obesity model: body weight, body composition, adipose weights, micro-CT. As to conditions: for fat mass reduction relative to HFD controls / reduction in total body weight compared to the HFD control group: LJ-4378 1 mg/kg/day I.P., TZP 10 nmol/kg/day S.C. As for the experimental part:
Animal experiments were conducted in accordance with the guidelines approved by the Institutional Animal Care and Use Committees (IACUC) of Seoul National University (SNU-230113–5-2, SNU-250410–1, and SNU-250811–5). C57BL/6 J male mice and Sprague–Dawley (SD) male rats were raised in a controlled animal facility with a temperature of 22 ± 1 °C and subjected to a 12-h light/12-h dark cycle. Mice were randomly assigned to experimental groups and fed either a normal chow diet (NCD, protein: 24.52% calories, carbohydrates: 63.07% calories, fat: 12.41% calories, 38,057, Purina Lab, Seongnam, Republic of Korea) or a high-fat diet (HFD, protein: 20% kcal, carbohydrate: 20% kcal, fat: 60% kcal, New Brunswick, D12492, Research Diets, NJ, USA) for the specified durations, according to group assignment. Both diet and water were provided ad libitum. SD rats (230–240 g) were provided standard rat chow and had free access to water. Prior to the experiment, the rats underwent a 12-h fasting period.
(§1) To evaluate the anti-obesity effect in vivo, mice fed either NCD or HFD for 10 weeks were subsequently treated for up to 4 weeks. To control for injection route-related variables, all mice received both intraperitoneal (I.P.) and subcutaneous (S.C.) injections. The administration were as follows: LJ-4378 treated mice received LJ-4378, which was synthesized in our laboratory at > 95% purity (1 mg/kg/day, I.P.) (Hou et al. [2010]; Kim et al. [2022]) along with the vehicle for TZP (40 mM Tris–HCl, pH 8, S.C.); TZP treated mice received TZP (Samms et al. [2021]; Kim et al. [2022]) (LY3298176, MedChemExpress, Monmouth Junction, NJ, USA) (10 nmol/kg/day, S.C.) along with the vehicle for LJ-4378 (0.2% DMSO, I.P.); vehicle control mice received both vehicles (0.2% DMSO, I.P. and 40 mM Tris–HCl, pH 8, S.C.)
Body composition and micro-CT analysis were performed after the treatment with vehicle, LJ-4378, or TZP for the indicated duration in HFD-fed mice and WR mice.
A nuclear magnetic resonance (NMR) technology system with EchoMRI-700 (Echo Medical Systems, […]) was used to analyze body composition.
To assess the abdominal fat volume, we employed the Quantum GX2 micro-CT imaging system (PerkinElmer, Waltham, MA, USA). Mice were anesthetized with isoflurane and positioned on the micro-CT bed for imaging of the abdominal region, defined from the proximal end of the L1 vertebra to the distal end of the L5 vertebra. Imaging was performed at 90 kV/88 µA with a field of view of 72 mm, a pixel size of 90 µm, and a 2-min acquisition time at standard resolution. Visceral, subcutaneous, and total abdominal fat volumes were quantified using AnalyzeDirect software (ver. 12.0, Overland Park, KS, USA).

The test system of experiment [4] is HFD-fed mice. The experiment can be described thus: Adipose tissue (gWAT) and systemic inflammation in HFD-fed mice. To be noted: for serum TNF-α levels: ELISA; for macrophage accumulation in gWAT (F4/80 protein, crown-like structures): compared with HFD controls. As for the experimental part:
as §1
The serum TNF-α level was measured using TNF-alpha ELISA MTA00B (R&D system) in accordance with the manufacturer’s protocol.
For protein extraction, we utilized PRO-RERP Protein Extraction Solution (17081, iNtRON Biotechnology, Gyeonggi-do, Korea), supplemented with […] Protease Inhibitor (S8820, Sigma, St. Louis, MO, USA) and PhosSTOP phosphatase inhibitor (#4906837001, Roche, Basel, Switzerland). Protein concentrations were determined using the Pierce BCA protein assay Kit (#23227, Thermo Fisher, Waltham, Massachusetts, USA) by measuring absorbance at 562 nm with a MultiSkan GO spectrophotometer (Thermo Fisher). The quantified proteins were loaded and separated in 12% SDS-PAGE gels and transferred to polyvinylidene difluoride (PVDF) membranes (Bio-Rad, Hercules, CA, USA). Membranes were blocked in 5% bovine serum albumin or skim milk in Tris-buffered saline with 0.1% Tween 20 (TBST) for 1 h, followed by overnight incubation with primary antibodies. The next day, membranes were washed 3 times with TBST and incubated for 1 h with horseradish peroxidase (HRP)-conjugated secondary antibody: Goat anti-rabbit (1:3000, #31460, Thermo Fisher) and Goat anti-Mouse IgG (1:3000, 115–035-174, Jackson ImmunoResearch). After secondary antibody incubation, membranes were washed 3 times with TBST and detected with the Fusion Solo chemiluminescence imaging system (Vilber Lourmat, France). EvolutionCapt (version 17.03) software and the ImageJ (National Institutes of Health, Bethesda, MD, USA) program were used for analysis and to quantify the protein level.
RT-qPCR was conducted according to the method (Cho et al. [2022]). The tissue samples were lysed in TRIzol (#15596018, Thermo Fisher), and the total RNA was extracted. The extracted RNA was synthesized into cDNA using the cDNA Reverse Transcription Kit (Applied Biosystems, Waltham, MA, USA). mRNA levels were quantified using iQ SYBR Green Supermix on the CFX Connect Real-time system (Bio-rad). Relative expression levels of each gene were calculated using the […] method, with the reference housekeeping gene as follows: Peptidylprolyl isomerase A (Ppia) for adipose tissue and glyceraldehyde-3-phosphate dehydrogenase (Gapdh) for hypothalamus.
Adipose tissues were fixed in 10% formalin (HT50128, Sigma) for 2 days and made into paraffin slides. The deparaffinized sections were stained with ClearView Staining Hematoxylin (MA010081, BBC Biochemical, Mount Vernon, WA, USA) and Eosin Y Alcoholic (#3610, BBC Biochemical) solution. The crown-like structure formation of gonadal white adipose tissue (gWAT) and triglyceride (TG) accumulation in the liver are observed using hematoxylin and eosin staining on paraffin slides. The images were captured using Nikon Elements (NIS BR Analysis ver 5.10.00).
In general terms: An ELISA detects its analyte on a solid surface through an enzyme-linked reagent.

For the compound `CCCCC#Cc1nc(N)c2ncn([C@@H]3SC[C@@H](O)[C@H]3O)c2n1` [LJ-4378], in the experiment with HFD-fed mice [1], the “phosphorylation of downstream targets of PKA in the liver” value was “Neither LJ-4378 nor TZP altered the phosphorylation”. In the experiment on HFD-fed mice [2], the fasting glucose levels entry is “significantly lower” and the “glucose tolerance (intraperitoneal glucose tolerance test)” value is recorded as “markedly enhanced”. The “fat ratio (% of the total body weight)” value in the experiment with HFD-fed mice [3] (4 weeks of LJ-4378, HFD-fed mice) is given as 20.1%. In the experiment on HFD-fed mice [3] (14 days), the “fat mass reduction relative to HFD controls” value worked out at 30.7% and the “reduction in total body weight compared to the HFD control group” value came to 9.04%. Also, in the experiment on HFD-fed mice [3] (HFD-fed mice, 14 days), the “iWAT and gWAT mass” value was “significantly reduced”; the “visceral and subcutaneous abdominal fat (micro-CT)” value was “reduction”. Further, the “reduction in body weight” value in the experiment on HFD-fed mice [3] (four weeks of LJ-4378 administration, HFD-fed mice) is recorded as 15.5%. The “serum TNF-α levels” value with HFD-fed mice [4] (HFD-fed mice) is reported as “reduced”. In the experiment on HFD-fed mice [4] (HFD-fed mice, RT-qPCR), the “Adgre1 and Tnf-α expression in gWAT” value is “remarkably suppressed”; the “M2-like macrophage markers (Arg1, Clec10a, Chil3, Il-10) in gWAT” value is “selectively upregulated”. Moreover, in the experiment with HFD-fed mice [4], the “macrophage accumulation in gWAT (F4/80 protein, crown-like structures)” value is “significantly reduced”.
With Tirzepatide [TZP, reference compound], the “phosphorylation of downstream targets of PKA in the liver” value in the experiment on HFD-fed mice [1] was “Neither LJ-4378 nor TZP altered the phosphorylation”. In addition, in the experiment with HFD-fed mice [2], the fasting glucose levels result is “significantly lower” and the “glucose tolerance (intraperitoneal glucose tolerance test)” value is recorded as “markedly enhanced”. Also, the “fat ratio (% of the total body weight)” value with HFD-fed mice [3] (2 weeks of TZP treatment, HFD-fed mice) was found to be 27.4%. In the experiment on HFD-fed mice [3] (14 days), the “fat mass reduction relative to HFD controls” value is given as 32.4% and the “reduction in total body weight compared to the HFD control group” value was 18.63%. In addition, in the experiment with HFD-fed mice [3] (HFD-fed mice, 14 days), the “brown adipose tissue (BAT) mass” value is given as “reduced”; the “iWAT and gWAT mass” value is “significantly reduced”; the “visceral and subcutaneous abdominal fat (micro-CT)” value is recorded as “reduction”. Further, the “serum TNF-α levels” value with HFD-fed mice [4] (HFD-fed mice) is listed as “reduced”. For the same compound, the “Adgre1 and Tnf-α expression in gWAT” value with HFD-fed mice [4] (HFD-fed mice, RT-qPCR) was “remarkably suppressed”. For the same compound, in the experiment with HFD-fed mice [4], the “macrophage accumulation in gWAT (F4/80 protein, crown-like structures)” value was “significantly reduced”.
